Measured values published in patent US10221173B2, “Chemical compounds” (AstraZeneca AB, priority 2017, dated 2019).
Values after ≈ are worked out from the molar mass of the structure shown.

Legend:
[1] = molecular target: recombinant human Estrogen Receptor alpha ligand binding domain (ER alpha-LBD (GST)) (Homo sapiens (Human), UniProt P03372); test: ERα binding assay (LanthaScreen TR-FRET competition)
[2] = Human plasma protein binding (equilibrium dialysis); type: in vitro ADME
[3] = Thermodynamic solubility (shake-flask); type: physicochemical; conditions: phosphate buffer pH 7.4, 24 hours
Description: The thermodynamic solubility of a research compound is measured under standard conditions. It is a shake-flask approach that uses 10 mM DMSO solutions which are supplied from the Compound Managements liquid store and is a high throughput method. The dried compounds are equilibrated in an aqueous phosphate buffer (pH 7.4) for 24 hours at 25° C., the portion with the dissolved compound is then separated from the remains. The solutions are analyzed and quantified using UPLC/MS/MS, QC-samples are incorporated in each assay-run to ensure the quality of the assay.

[4] = Log D (shake flask, 1-octanol/aqueous buffer); type: physicochemical
[5] = molecular target: Estrogen Receptor (ERα) in MCF-7 cells (Homo sapiens (Human), UniProt P03372); test: MCF-7 ER down-regulation assay (immuno-fluorescence); type: cell-based; conditions: for % downregulation (in brackets): maximum downregulation
Estrogen Receptor (ERα) in MCF-7 cells, sequence (P03372 whole entry): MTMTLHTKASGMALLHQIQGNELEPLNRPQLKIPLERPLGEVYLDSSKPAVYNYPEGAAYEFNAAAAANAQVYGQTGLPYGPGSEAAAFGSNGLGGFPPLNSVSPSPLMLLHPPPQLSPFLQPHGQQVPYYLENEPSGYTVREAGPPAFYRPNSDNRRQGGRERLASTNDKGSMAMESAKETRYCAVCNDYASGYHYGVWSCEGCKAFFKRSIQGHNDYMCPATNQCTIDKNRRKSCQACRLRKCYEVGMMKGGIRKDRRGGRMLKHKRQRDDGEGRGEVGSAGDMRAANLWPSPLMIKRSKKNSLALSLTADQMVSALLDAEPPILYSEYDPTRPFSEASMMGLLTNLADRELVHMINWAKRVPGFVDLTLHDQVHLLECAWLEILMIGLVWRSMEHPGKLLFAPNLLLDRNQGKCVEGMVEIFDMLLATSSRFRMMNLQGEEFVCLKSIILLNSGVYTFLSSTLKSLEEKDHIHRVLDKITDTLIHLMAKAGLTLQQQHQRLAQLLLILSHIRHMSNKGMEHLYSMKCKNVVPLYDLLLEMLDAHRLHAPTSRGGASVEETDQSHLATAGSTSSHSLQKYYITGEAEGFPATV
Description: The ability of compounds to down-regulate Estrogen Receptor (ER) numbers was assessed in a cell based immuno-fluorescence assay using the MCF-7 human ductal carcinoma breast cell line. MCF-7 cells were revived directly from a cryovial (approx 5×10^6 cells) in Assay Medium (phenol red free Dulbecco's Modified Eagle's medium (DMEM); Sigma D5921) containing 2 mM L-Glutamine and 5% (v/v) Charcoal/Dextran treated foetal calf serum. Cells were syringed once using a sterile 18G×1.5 inch (1.2×40 mm) broad gauge needle and cell density was measured using a Coulter Counter (Beckman). […] Following cell seeding, plates were incubated overnight at 37° C., 5% CO2 (Liconic carousel incubator). Test data was generated using the LabCyte Echomodel 555 compound reformatter which is part of an automated workcell (Integrated Echo 2 workcell). Compound stock solutions (10 mM) of the test compounds were used to generate a 384 well compound dosing plate (Labcyte P-05525-CV1). […] 40 μL of DMSO added to wells in row P on the source plate allowed for DMSO normalisation across the dose range. To dose the control wells 40 μL of DMSO was added to row O1 and 40 μL of 100 μM fulvestrant in DMSO was added to row O3 on the compound source plate.
The Echo uses acoustic technology to perform direct microplate-to-microplate transfers of DMSO compound solutions to assay plates. The system can be programmed to transfer volumes as low as 2.5 nL in multiple increments between microplates and in so doing generates a serial dilution of compound in the assay plate which is then back-filled to normalise the DMSO concentration across the dilution range. […] The fixing method described above was carried out on the Integrated Echo 2 workcell. Immunostaining was performed using an automated AutoElisa workcell. The PBS/Proclin was aspirated from all wells and the cells permeabilised with 40 μL PBS containing 0.5% Tween™ 20 (v/v) for 1 hour at room temperature. The plates were washed three times in 250 μL of PBS/0.05% (v/v) Tween 20 with Proclin (PBST with a Biocide preservative) and then 20 μL of ERα (SP1) Rabbit monoclonal antibody (Thermofisher) 1:1000 in PBS/Tween™/3% (w/v) Bovine Serum Albumin was added. The plates were incubated overnight at 4° C. (Liconic carousel incubator) and then washed three times in 250 μL of PBS/0.05% (v/v) Tween™ 20 with Proclin (PBST). The plates were then incubated with 20 μL/well of a goat anti-rabbit IgG AlexaFluor 594 or goat anti-rabbit AlexaFluor 488 antibody (Molecular Probes) with Hoechst at 1:5000 in PBS/Tween™/3% (w/v) Bovine Serum Albumin for 1 hour at room temperature. The plates were then washed three times in 250 μL of PBS/0.05% (v/v) Tween™ 20 with Proclin (PBST with a Biocide preservative). 20 μL of PBS was added to each well and the plates covered with a black plate seal and stored at 4° C. before being read. […] The mean total intensity was normalized for cell number giving the total intensity per cell. The data was exported into a suitable software package (such as Origin) to perform curve fitting analysis.

[6] = molecular target: hERG potassium channel (Homo sapiens (Human), UniProt Q12809)
hERG potassium channel, sequence (Q12809 whole entry): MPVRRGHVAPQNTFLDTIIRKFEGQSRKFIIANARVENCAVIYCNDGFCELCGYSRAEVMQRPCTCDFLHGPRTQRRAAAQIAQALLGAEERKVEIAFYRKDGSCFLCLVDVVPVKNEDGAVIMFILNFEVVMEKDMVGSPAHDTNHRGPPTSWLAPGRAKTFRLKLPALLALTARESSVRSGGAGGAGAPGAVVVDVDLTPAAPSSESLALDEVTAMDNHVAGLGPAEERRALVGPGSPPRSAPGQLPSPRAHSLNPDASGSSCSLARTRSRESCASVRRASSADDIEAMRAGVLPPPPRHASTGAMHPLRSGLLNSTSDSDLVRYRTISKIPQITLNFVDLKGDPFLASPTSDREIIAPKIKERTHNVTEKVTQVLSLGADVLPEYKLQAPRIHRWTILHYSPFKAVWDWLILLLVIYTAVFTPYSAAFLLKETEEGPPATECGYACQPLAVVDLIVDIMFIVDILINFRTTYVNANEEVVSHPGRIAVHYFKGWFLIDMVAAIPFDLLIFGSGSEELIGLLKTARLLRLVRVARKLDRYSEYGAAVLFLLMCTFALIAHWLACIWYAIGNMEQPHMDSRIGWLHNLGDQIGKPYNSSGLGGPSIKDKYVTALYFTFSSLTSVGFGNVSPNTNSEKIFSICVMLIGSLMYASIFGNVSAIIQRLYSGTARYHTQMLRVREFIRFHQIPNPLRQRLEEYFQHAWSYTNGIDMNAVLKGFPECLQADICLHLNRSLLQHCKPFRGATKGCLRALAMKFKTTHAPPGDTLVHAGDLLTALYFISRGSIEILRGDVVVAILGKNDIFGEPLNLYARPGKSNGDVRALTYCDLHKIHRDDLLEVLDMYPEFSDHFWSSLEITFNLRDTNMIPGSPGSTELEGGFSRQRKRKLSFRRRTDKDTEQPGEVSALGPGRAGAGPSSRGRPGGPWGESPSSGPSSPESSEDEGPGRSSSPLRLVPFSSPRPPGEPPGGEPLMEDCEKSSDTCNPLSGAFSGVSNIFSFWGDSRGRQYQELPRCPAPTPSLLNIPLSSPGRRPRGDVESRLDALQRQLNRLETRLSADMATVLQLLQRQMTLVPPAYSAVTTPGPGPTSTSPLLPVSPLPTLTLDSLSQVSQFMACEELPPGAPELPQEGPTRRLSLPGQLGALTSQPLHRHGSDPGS

[7] = aqueous phosphate buffer, 25 °C, pH 7.4, aqueous buffer, thermodynamic from solid
[8] = 1-octanol/aqueous buffer, pH 7.4, pH 7.4

recombinant human Estrogen Receptor alpha ligand binding domain (ER alpha-LBD (GST)), sequence (P03372 307-554): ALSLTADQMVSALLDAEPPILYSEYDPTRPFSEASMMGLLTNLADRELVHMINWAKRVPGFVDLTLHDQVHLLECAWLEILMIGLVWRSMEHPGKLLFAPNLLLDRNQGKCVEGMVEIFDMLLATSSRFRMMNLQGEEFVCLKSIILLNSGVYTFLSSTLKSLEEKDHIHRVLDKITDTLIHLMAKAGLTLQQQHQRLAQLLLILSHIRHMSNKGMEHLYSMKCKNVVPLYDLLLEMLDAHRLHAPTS

SMILES | IC50 [1] | Human plasma protein binding (% free) [2] | solubility at 24 h [3, 7] | logD [4, 8] | IC50 [5] | IC50 [6] | % downregulation (in brackets) [5] | solubility at 24 h ([3]; aqueous buffer, thermodynamic from solid, 25° C.) | logD ([4]; pH 7.4) | solubility at 24 h ([3]; 25° C.) | LogD pH 7.4 ([4]; pH 7.4)
C[C@@H]1Cc2c([nH]c3ccccc23)[C@@H](c2ccnc(OCCNCCCF)c2)N1CC(F)(F)F [Example 102, 3-fluoro-N-(2-((4-((1R,3R)-3-methyl-2-(2,2,2-trifluoroethyl)-2,3,4,9-tetrahydro-1H-pyrido[3,4-b]indol-1-yl)pyridin-2-yl)oxy)ethyl)propan-1-amine] | 2 nM | 1.4 % free | 251 µM (≈ 117 µg/mL) | 3.8 | 2.9 nM | 7200 nM | – | – | – | – | –
COc1ccc(OCCNCCCF)c(F)c1[C@@H]1c2[nH]c3ccccc3c2C[C@@H](C)N1CC1(F)COC1 [Example 84, 3-fluoro-N-(2-(2-fluoro-3-((1R,3R)-2-((3-fluorooxetan-3-yl)methyl)-3-methyl-2,3,4,9-tetrahydro-1H-pyrido[3,4-b]indol-1-yl)-4-methoxyphenoxy)ethyl)propan-1-amine] | 0.94 nM | 6 % free | 640 µM (≈ 331 µg/mL) | 2.4 | 0.16 nM | 2800 nM | 83% | – | – | – | –
COc1ccc(OCCNCCCF)cc1[C@@H]1c2[nH]c3ccccc3c2C[C@@H](C)N1C[C@H](C)C(=O)O [Example 53, (S)-3-((1R,3R)-1-(5-(2-((3-fluoropropyl)amino)ethoxy)-2-methoxyphenyl)-3-methyl-1,3,4,9-tetrahydro-2H-pyrido[3,4-b]indol-2-yl)-2-methylpropanoic acid] | 150 nM | 80 % free | > 1000 µM | 0.1 | – | > 40000 nM | — (40%) | – | – | – | –
C[C@@H]1Cc2c([nH]c3ccccc23)[C@@H](c2cc(OCCNCCCF)ncc2F)N1CC(F)(F)F [Example 39, 3-fluoroN-(2-((5-fluoro-4-((1R,3R)-3-methyl-2-(2,2,2-trifluoroethyl)-2,3,4,9-tetrahydro-1H-pyrido[3,4-b]indol-1-yl)pyridin-2-yl)oxy)ethyl)propan-1-amine] | 1.4 nM | – | 259 µM (≈ 125 µg/mL) | 3.6 | 0.26 nM | 3900 nM | – | – | – | – | –
COc1ccc(O[C@@H](C)CNCCCF)cc1[C@@H]1c2[nH]c3ccccc3c2C[C@@H](C)N1CC(F)(F)CO [Example 48, 2,2-difluoro-3-((1R,3R)-1-(5-(((S)-1-((3-fluoropropyl)amino)propan-2-yl)oxy)-2-methoxyphenyl)-3-methyl-1,3,4,9-tetrahydro-2H-pyrido[3,4-b]indol-2-yl)propan-1-ol] | 4.4 nM | – | 307 µM (≈ 160 µg/mL) | 2.8 | 13 nM | 2700 nM | – | – | – | – | –
COc1cnc(NCCNCCCF)cc1[C@@H]1c2[nH]c3ccccc3c2C[C@@H](C)N1CC(F)(F)F [Example 42] | 3.7 nM | – | 349 µM (≈ 172 µg/mL) | 2.9 | 1.9 nM | 7100 nM | – | – | – | – | –
C[C@@H]1Cc2c([nH]c3ccccc23)[C@@H](c2nccc(OCCNCCCF)c2F)N1CC1(F)COC1 [Example 100, 3-fluoro-N-(2-((3-fluoro-2-((1S,3R)-2-((3-fluorooxetan-3-yl)methyl)-3-methyl-2,3,4,9-tetrahydro-1H-pyrido[3,4-b]indol-1-yl)pyridin-4-yl)oxy)ethyl)propan-1-amine] | 5.2 nM | – | > 1000 µM | 2.5 | 11 nM | 19000 nM | – | – | – | – | –
Cc1c([C@@H]2c3[nH]c4ccccc4c3C[C@@H](C)N2CC(F)(F)F)ccnc1OCCNCCCF [Example 106, 3-fluoro-N-(2-((3-methyl-4-((1R,3R)-3-methyl-2-(2,2,2-trifluoroethyl)-2,3,4,9-tetrahydro-1H-pyrido[3,4-b]indol-1-yl)pyridin-2-yl)oxy)ethyl)propan-1-amine] | 0.92 nM | 0.34 % free | 264 µM (≈ 126 µg/mL) | 3.9 | 0.095 nM | – | – | – | – | – | –
Cc1c(OCCN(C)CCCF)ccc(F)c1[C@@H]1c2[nH]c3ccccc3c2C[C@@H](C)N1CCC(=O)O [Example 163, 3-((1R,3R)-1-(6-fluoro-3-(2-((3-fluoropropyl)(methyl)amino)ethoxy)-2-methylphenyl)-3-methyl-1,3,4,9-tetrahydro-2H-pyrido[3,4-b]indol-2-yl)propanoic acid] | 3.3 nM | 49 % free | > 1000 µM | 0.7 | 1.2 nM | – | – | – | – | – | –
COc1ccc(OCCNCCCF)c(F)c1[C@@H]1c2[nH]c3ccccc3c2C[C@@H](C)N1CC(F)F [Example 82, N-(2-(3-((1R,3R)-2-(2,2-difluoroethyl)-3-methyl-2,3,4,9-tetrahydro-1H-pyrido[3,4-b]indol-1-yl)-2-fluoro-4-methoxyphenoxy)ethyl)-3-fluoropropan-1-amine] | 0.8 nM | 1.9 % free | – | – | 0.042 nM | – | – | 475 µM (≈ 234 µg/mL) | 2.9 | – | –
C[C@@H]1Cc2c([nH]c3ccccc23)[C@@H](c2nccc(OCCNCCCF)c2F)N1CC(F)F [Example 98, N-(2-((2-((1S,3R)-2-(2,2-difluoroethyl)-3-methyl-2,3,4,9-tetrahydro-1H-pyrido[3,4-b]indol-1-yl)-3-fluoropyridin-4-yl)oxy)ethyl)-3-fluoropropan-1-amine] | 1.9 nM | – | 594 µM (≈ 276 µg/mL) | 2.3 | 1.2 nM | > 32000 nM | – | – | – | – | –
CC(CN1[C@H](c2c(Cl)ccc(OCCNCCCF)c2Cl)c2[nH]c3ccc(F)cc3c2C[C@H]1C)C(=O)O (single isomer, unassigned) [Example 130] | 1.8 nM | 7.8 % free | – | – | 1.3 nM | – | – | – | – | 854 µM (≈ 474 µg/mL) | 1.5
C[C@@H]1Cc2c([nH]c3ccccc23)[C@@H](c2nccc(OCCNCCCF)c2F)N1CC1(F)CC1 [Example 99, 3-fluoro-N-(2-((3-fluoro-2-((1S,3R)-2-((1-fluorocyclopropyl)methyl)-3-methyl-2,3,4,9-tetrahydro-1H-pyrido[3,4-b]indol-1-yl)pyridin-4-yl)oxy)ethyl)propan-1-amine] | 3.4 nM | – | 285 µM (≈ 135 µg/mL) | 2.1 | 3.8 nM | 20000 nM | – | – | – | – | –
C[C@@H]1Cc2c([nH]c3ccccc23)[C@@H](c2nccc(OCCNCCCF)c2Cl)N1CC(F)(F)F [Example 93, N-(2-((3-chloro-2-((1S,3R)-3-methyl-2-(2,2,2-trifluoroethyl)-2,3,4,9-tetrahydro-1H-pyrido[3,4-b]indol-1-yl)pyridin-4-yl)oxy)ethyl)-3-fluoropropan-1-amine] | – | 0.34 % free | 0.5 µM (≈ 0.249 µg/mL) | 4.3 | – | 6600 nM | – | – | – | – | –
CC(CN1[C@H](c2c(Cl)ccc(OCCNCCCF)c2Cl)c2[nH]c3ccc(F)cc3c2C[C@H]1C)C(=O)O (single isomer, unassigned) [Example 129] | 8.9 nM | 23 % free | 953 µM (≈ 528 µg/mL) | 1.5 | 2.6 nM | – | – | – | – | – | –
C[C@@H]1Cc2c([nH]c3ccccc23)[C@@H](c2ccnc(OCCNCCCF)c2Cl)N1CC(F)(F)CO [Example 104, 3-((1R,3R)-1-(3-chloro-2-(2-((3-fluoropropyl)amino)ethoxy)pyridin-4-yl)-3-methyl-1,3,4,9-tetrahydro-2H-pyrido[3,4-b]indol-2-yl)-2,2-difluoropropan-1-ol] | 0.72 nM | 2.8 % free | 431 µM (≈ 220 µg/mL) | 3 | 0.17 nM | – | – | – | – | – | –
Cc1c(N(C)CCNCCCF)ccc(F)c1[C@@H]1c2[nH]c3ccccc3c2C[C@@H](C)N1C[C@H](C)C(=O)O [Example 136, (S)-3-((1R,3R)-1-(6-fluoro-3-((2-((3-fluoropropyl)amino)ethyl)(methyl)amino)-2-methylphenyl)-3-methyl-1,3,4,9-tetrahydro-2H-pyrido[3,4-b]indol-2-yl)-2-methylpropanoic acid] | 2 nM | 2.1 % free | 328 µM (≈ 168 µg/mL) | 1.1 | > 300 nM | – | – | – | – | – | –
Cc1c(OCCNCCCF)ccc(F)c1[C@@H]1c2[nH]c3ccccc3c2C[C@@H](C)N1CCC#N [Example 87, 3-((1R,3R)-1-(6-fluoro-3-(2-((3-fluoropropyl)amino)ethoxy)-2-methylphenyl)-3-methyl-1,3,4,9-tetrahydro-2H-pyrido[3,4-b]indol-2-yl)propanenitrile] | 0.54 nM | 1.6 % free | 71 µM (≈ 33.1 µg/mL) | 3.1 | 0.065 nM | – | – | – | – | – | –
COc1ccc(OCCNCCC(F)(F)F)cc1[C@@H]1c2[nH]c3ccccc3c2C[C@@H](C)N1CC(F)(F)F [Example 72, 3,3,3-trifluoro-N-(2-(4-methoxy-3-((1R,3R)-3-methyl-2-(2,2,2-trifluoroethyl)-2,3,4,9-tetrahydro-1H-pyrido[3,4-b]indol-1-yl)phenoxy)ethyl)propan-1-amine] | 1.4 nM | <0.1 % free | < 0.2 µM | 5.2 | 0.49 nM | – | – | – | – | – | –
COc1cc(F)c(OCCNCCCF)cc1[C@@H]1c2[nH]c3ccccc3c2C[C@@H](C)N1CC(F)(F)F [Example 28, 3-fluoro-N-(2-(2-fluoro-4-methoxy-5-((1R,3R)-3-methyl-2-(2,2,2-trifluoroethyl)-2,3,4,9-tetrahydro-1H-pyrido[3,4-b]indol-1-yl)phenoxy)ethyl)propan-1-amine] | 2.8 nM | 1.2 % free | 40 µM (≈ 20.5 µg/mL) | 3.8 | 0.8 nM | – | – | – | – | – | –
